# Read-outs that look alike come from different tables or passages of the source. Starred links: 1 amine or outer side, 2 acyl side, 3 side chain; linkers in the order of their positions; H or OH if unused. Non-standard residues stand in square brackets, D forms with d. Residues, ends and D or L forms follow the SMILES beside them. Groups on a side chain read outwards from the residue. *: point of attachment. C20 diacid = O=C(O)CCCCCCCCCCCCCCCCCCC(=O)*; γGlu = O=C(O)[C@H](CCC(=O)[*:2])N[*:1]; NMeI = CC[C@H](C)[C@H](NC)C(=O)O; Nle = CCCC[C@H](N)C(=O)O; AEEA = NCCOCCOCC(=O)O; Aib = CC(C)(N)C(=O)O
# Tests used:
# hCRHR1 = biological target: T1, hCRHR1 (Homo sapiens, UniProt P34998); experiment: HTRF cAMP assay, determination of hCRHR1 potency (peptide libraries 5 conc., purified peptides 11 conc.); format: cell-based
# T1 sequence (P34998 24-415): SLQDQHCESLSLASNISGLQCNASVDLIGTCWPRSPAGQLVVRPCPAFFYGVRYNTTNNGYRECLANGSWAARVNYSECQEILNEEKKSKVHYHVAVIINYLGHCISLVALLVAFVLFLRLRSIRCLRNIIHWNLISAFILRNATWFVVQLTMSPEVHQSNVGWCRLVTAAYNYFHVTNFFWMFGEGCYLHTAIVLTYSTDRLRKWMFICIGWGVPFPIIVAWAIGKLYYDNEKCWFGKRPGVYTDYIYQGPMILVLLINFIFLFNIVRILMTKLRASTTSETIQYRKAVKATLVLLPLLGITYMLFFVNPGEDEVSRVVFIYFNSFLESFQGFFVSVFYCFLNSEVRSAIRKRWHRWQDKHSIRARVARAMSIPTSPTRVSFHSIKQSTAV
# Text: HTRF (CisBio) cAMP assay: The assay technology has thoroughly been described in the CisBio HTRF cAMP assay Kit manual (# 62AM4PEC). Briefly, time resolved fluorescence technic was applied to measure cAMP. This technic is based on a competitive immunoassay using cryptate-labelled anti-cAMP antibody and d2-labeled cAMP. In the absence of cellular cAMP, the anti-cAMP cryptate conjugate may get into proximity to cAMP-d2 conjugate and energy (FRET) can be transferred from cryptate to d2. CHO-K1 cells stably expressing the human corticotropin-releasing hormone receptor 1 (Eurofins/DiscoverX Cat #95-0047C2 hCRHR1 stable monoclonal cell lines) were used as cells in suspension, brought to life from frozen cell stocks immediately before assay performance. […] Concentration-response evaluation of compounds was performed with 5 concentrations of agonist peptides and EC50 values were calculated by nonlinear regression using sigmoid concentration-response with variable slope. Concentration-response evaluation of compounds was performed with 11 concentrations of agonist peptides and EC50 values were calculated by nonlinear regression using sigmoid concentration-response with variable slope.
# hCRHR2 = biological target: T2, hCRHR2 (Homo sapiens, UniProt Q13324); experiment: HTRF cAMP assay, determination of hCRHR2 potency (peptide libraries 5 conc., purified peptides 11 conc.); format: cell-based
# T2 sequence (Q13324 1-411): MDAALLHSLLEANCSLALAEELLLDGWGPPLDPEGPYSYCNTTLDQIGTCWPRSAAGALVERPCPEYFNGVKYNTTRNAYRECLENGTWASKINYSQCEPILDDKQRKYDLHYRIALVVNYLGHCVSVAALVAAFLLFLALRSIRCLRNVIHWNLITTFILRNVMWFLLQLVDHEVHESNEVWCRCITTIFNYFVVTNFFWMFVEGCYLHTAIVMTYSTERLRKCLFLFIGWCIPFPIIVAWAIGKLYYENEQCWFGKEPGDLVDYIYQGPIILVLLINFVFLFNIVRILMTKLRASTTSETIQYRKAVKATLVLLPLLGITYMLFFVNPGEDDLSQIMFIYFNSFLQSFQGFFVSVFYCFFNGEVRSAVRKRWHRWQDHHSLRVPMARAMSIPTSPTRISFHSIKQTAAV
# Text: HTRF (CisBio) cAMP assay: The assay technology has thoroughly been described in the CisBio HTRF cAMP assay Kit manual (# 62AM4PEC). Briefly, time resolved fluorescence technic was applied to measure cAMP. This technic is based on a competitive immunoassay using cryptate-labelled anti-cAMP antibody and d2-labeled cAMP. In the absence of cellular cAMP, the anti-cAMP cryptate conjugate may get into proximity to cAMP-d2 conjugate and energy (FRET) can be transferred from cryptate to d2.
# CHO-K1 cells stably expressing the human corticotropin-releasing hormone receptor 2 (Eurofins/DiscoverX, Cat #95-0048C2 hCRHR2 stable monoclonal cell lines) were used as cells in suspension, brought to life from frozen cell stocks immediately before assay performance.
# Concentration-response evaluation of compounds was performed with 5 concentrations of agonist peptides and EC50 values were calculated by nonlinear regression using sigmoid concentration-response with variable slope.
# Concentration-response evaluation of compounds was performed with 11 concentrations of agonist peptides and EC50 values were calculated by nonlinear regression using sigmoid concentration-response with variable slope.
# [1] = library peptides, matched molecular pairs L vs Nle in position X^38, read-out: Potency hCRHR1 pEC50 (converted)
# [2] = library peptides, matched molecular pairs L vs Nle in position X^38, read-out: Potency hCRHR2 pEC50 (converted)
# [3] = Table 4, library peptides having X^38 = Nle, read-out: hCRHR1 pEC50 (converted)
# [4] = Table 4, library peptides having X^38 = Nle, read-out: hCRHR2 pEC50 (converted)
SMILES,EC50 (hCRHR1; [1]) [nM],EC50 (hCRHR2; [2]) [nM],EC50 (hCRHR1; [3]) [nM],EC50 (hCRHR2; [4]) [nM]
CC[C@H](C)[C@H](N)C(=O)N[C@H](C(=O)N[C@@H](CC(C)C)C(=O)N[C@@H](CO)C(=O)N[C@@H](CC(C)C)C(=O)N[C@@H](CC(=O)O)C(=O)N[C@H](C(=O)N1CCC[C@H]1C(=O)N[C@H](C(=O)NCC(=O)N[C@@H](CC(C)C)C(=O)N[C@@H](CC(C)C)C(=O)N[C@@H](CCC(N)=O)C(=O)N[C@H](C(=O)N[C@@H](CC(C)C)C(=O)N[C@@H](CC(C)C)C(=O)N[C@@H](CCC(=O)O)C(=O)N[C@@H](CCC(N)=O)C(=O)N[C@@H](C)C(=O)N[C@@H](CCCNC(=N)N)C(=O)N[C@@H](C)C(=O)N[C@@H](CCC(=O)O)C(=O)N[C@@H](C)C(=O)N[C@@H](CC(C)C)C(=O)N[C@@H](CCCNC(=N)N)C(=O)N[C@@H](CCC(N)=O)C(=O)N[C@@H](CCC(N)=O)C(=O)N[C@@H](C)C(=O)N[C@@H](CCCCNC(=O)COCCOCCNC(=O)COCCOCCNC(=O)CC[C@H](NC(=O)CC[C@H](NC(=O)CCCCCCCCCCCCCCCCCCC(=O)O)C(=O)O)C(=O)O)C(=O)N[C@H](C(=O)N[C@@H](CC(N)=O)C(=O)N[C@@H](C)C(=O)N[C@@H](CCC(=O)O)C(=O)N[C@H](C(=O)N[C@@H](CC(C)C)C(=O)N[C@@H](C)C(=O)N[C@@H](CCC(=O)O)C(=O)N[C@H](C(N)=O)C(C)C)[C@@H](C)CC)[C@@H](C)O)[C@@H](C)CC)[C@@H](C)CC)C(C)C)C(C)C [compound 58] (H-IVLSLDVPIGLLQILLEQARAEALRQQAK([AEEA-AEEA-γGlu-γGlu-C20 diacid])TNAEILAEV-NH2),100,0.316,–,–
CCCC[C@H](NC(=O)[C@@H](NC(=O)[C@H](CCC(=O)O)NC(=O)[C@H](C)NC(=O)[C@H](CC(N)=O)NC(=O)[C@@H](NC(=O)[C@H](CCCCNC(=O)COCCOCCNC(=O)COCCOCCNC(=O)CC[C@H](NC(=O)CC[C@H](NC(=O)CCCCCCCCCCCCCCCCCCC(=O)O)C(=O)O)C(=O)O)NC(=O)[C@H](C)NC(=O)[C@H](CCC(N)=O)NC(=O)[C@H](CCC(=O)O)NC(=O)[C@H](CCCNC(=N)N)NC(=O)[C@H](CC(C)C)NC(=O)[C@H](CCC(N)=O)NC(=O)[C@H](CCCNC(=N)N)NC(=O)[C@H](C)NC(=O)[C@H](CCCNC(=N)N)NC(=O)[C@H](C)NC(=O)[C@H](CCC(N)=O)NC(=O)[C@H](CCC(=O)O)NC(=O)[C@H](CC(C)C)NC(=O)[C@H](CC(C)C)NC(=O)[C@@H](NC(=O)[C@H](CCC(N)=O)NC(=O)[C@H](CC(C)C)NC(=O)[C@H](CC(C)C)NC(=O)CNC(=O)[C@@H](NC(=O)[C@@H]1CCCN1C(=O)[C@@H](NC(=O)[C@H](CC(=O)O)NC(=O)[C@H](CC(C)C)NC(=O)[C@H](CO)NC(=O)[C@H](CC(C)C)NC(=O)[C@@H](NC(=O)[C@@H](N)[C@@H](C)CC)C(C)C)C(C)C)[C@@H](C)CC)[C@@H](C)CC)[C@@H](C)O)[C@@H](C)CC)C(=O)N[C@@H](C)C(=O)N[C@@H](CCC(=O)O)C(=O)N[C@H](C(N)=O)C(C)C [compound 73] (H-IVLSLDVPIGLLQILLEQARARQLREQAK([AEEA-AEEA-γGlu-γGlu-C20 diacid])TNAEI[Nle]AEV-NH2),3.98,0.2,–,–
CCCC[C@H](NC(=O)[C@@H](NC(=O)[C@H](CCC(=O)O)NC(=O)C(C)(C)NC(=O)[C@H](CC(N)=O)NC(=O)[C@@H](NC(=O)[C@H](CCCCNC(=O)COCCOCCNC(=O)COCCOCCNC(=O)CC[C@H](NC(=O)CC[C@H](NC(=O)CCCCCCCCCCCCCCCCCCC(=O)O)C(=O)O)C(=O)O)NC(=O)[C@H](C)NC(=O)[C@H](CCC(N)=O)NC(=O)[C@H](CCC(=O)O)NC(=O)[C@H](CCCNC(=N)N)NC(=O)[C@H](C)NC(=O)[C@H](C)NC(=O)[C@H](CCCNC(=N)N)NC(=O)[C@H](C)NC(=O)[C@H](CCCNC(=N)N)NC(=O)[C@H](C)NC(=O)[C@H](CCC(N)=O)NC(=O)[C@@H](NC(=O)[C@H](CC(C)C)NC(=O)[C@H](CC(C)C)NC(=O)[C@@H](NC(=O)[C@H](CCC(N)=O)NC(=O)[C@H](CC(C)C)NC(=O)[C@H](CC(C)C)NC(=O)CNC(=O)[C@@H](NC(=O)[C@@H]1CCCN1C(=O)[C@@H](NC(=O)[C@H](CC(=O)O)NC(=O)[C@H](CC(C)C)NC(=O)[C@H](CO)NC(=O)[C@H](CC(C)C)NC(=O)[C@@H](NC(=O)[C@@H](NC)[C@@H](C)CC)C(C)C)C(C)C)[C@@H](C)CC)[C@@H](C)CC)[C@@H](C)O)[C@@H](C)O)[C@@H](C)CC)C(=O)N[C@@H](C)C(=O)N[C@@H](CCC(=O)O)C(=O)N[C@H](C(N)=O)C(C)C [compound 217] (H-[NMeI]VLSLDVPIGLLQILLTQARARAAREQAK([AEEA-AEEA-γGlu-γGlu-C20 diacid])TN[Aib]EI[Nle]AEV-NH2),–,–,1000,0.0398
CCCC[C@H](NC(=O)[C@@H](NC(=O)[C@H](CCC(=O)O)NC(=O)[C@H](C)NC(=O)[C@H](CC(N)=O)NC(=O)C(C)(C)NC(=O)[C@H](CCCCNC(=O)COCCOCCNC(=O)COCCOCCNC(=O)CC[C@H](NC(=O)CC[C@H](NC(=O)CCCCCCCCCCCCCCCCCCC(=O)O)C(=O)O)C(=O)O)NC(=O)[C@H](C)NC(=O)[C@H](CCC(N)=O)NC(=O)[C@H](CCC(=O)O)NC(=O)[C@H](CCCNC(=N)N)NC(=O)[C@H](C)NC(=O)[C@H](C)NC(=O)[C@H](CCCNC(=N)N)NC(=O)[C@H](C)NC(=O)[C@H](CCCNC(=N)N)NC(=O)[C@H](C)NC(=O)[C@H](CCC(N)=O)NC(=O)[C@H](CCCCN)NC(=O)[C@H](CC(C)C)NC(=O)[C@H](CC(C)C)NC(=O)[C@@H](NC(=O)[C@H](CCC(N)=O)NC(=O)[C@H](CC(C)C)NC(=O)[C@H](CC(C)C)NC(=O)CNC(=O)[C@@H](NC(=O)[C@@H]1CCCN1C(=O)[C@@H](NC(=O)[C@H](CC(=O)O)NC(=O)[C@H](CC(C)C)NC(=O)[C@H](CO)NC(=O)[C@H](CC(C)C)NC(=O)[C@@H](NC(=O)[C@@H](NC)[C@@H](C)CC)C(C)C)C(C)C)[C@@H](C)CC)[C@@H](C)CC)[C@@H](C)CC)C(=O)N[C@@H](C)C(=O)N[C@@H](CCC(=O)O)C(=O)N[C@H](C(N)=O)C(C)C [compound 233] (H-[NMeI]VLSLDVPIGLLQILLKQARARAAREQAK([AEEA-AEEA-γGlu-γGlu-C20 diacid])[Aib]NAEI[Nle]AEV-NH2),–,–,3160,0.0398
